We go through six molecules from US6927208B1, “Cyclosporin with improved activity profile” (Debiopharm S.A., priority 1998, dated 2005).

For one assay, the target named is cyclophilin A (Homo sapiens, UniProt P62937). Description: competitive ELISA test, affinity of Cs derivatives for cyclophilin A. Type of assay: binding. To be noted: 1.0 = binds as well as CsA, lower than 1.0 = binds better. As for the experimental part: The results of Table 1 show the affinity of the derivatives of Cs for cyclophilin A in a competitive ELISA test described by Quesniaux in Eur. J. Immunology 1987, 17, 1359-1365. In this test, during incubation with cyclophilin, Cs bound to BSA (serum albumin) is added to the Cs to be tested. The concentration required to obtain 50% inhibition (IC50) of the reference reaction in the absence of competitor is then calculated. The results are expressed by the binding index BI which is the ratio of the IC50 of the derivative and the IC50 of CsA.
cyclophilin A, sequence (P62937 whole entry, species assumed): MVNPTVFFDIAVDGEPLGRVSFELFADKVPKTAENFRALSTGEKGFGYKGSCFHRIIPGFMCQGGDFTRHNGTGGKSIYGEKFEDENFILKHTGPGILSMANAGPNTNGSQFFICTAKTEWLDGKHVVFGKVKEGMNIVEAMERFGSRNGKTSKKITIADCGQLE

Assay [1] concerns Balb/c mouse spleen cells stimulated with treated CBA mouse spleen cells. Description: mixed lymphocyte reaction (MLR), immunosuppressive activity. Type of assay: cell-based, mice. The following applies: 5 days, greater than 1.0 = less active than CsA, >20 = not immunosuppressive. As for the experimental part:
Cs is regarded as being immunosuppressive if its activity in the mixed lymphocyte reaction (MLR) is greater than 5%. The reaction (MLR) is described by T. Meo in “Immunological Methods”, L. Lefkovits and […]: 227-239 (1979). Spleen cells (0.5.10^6) originating from Balb/c mice (female, 8 to 10 weeks) are co-incubated for 5 days in the presence of treated spleen cells originating from CBA mice (females, 8 to 10 weeks). These cells were treated with mitomycin C or were irradiated at 2000 rads. […] The IC50 calculated in the MLR test is compared with the IC50 corresponding to CsA in a parallel experiment.

Another assay deals with HIV in CEM-SS cell line. Briefly: protection during infection with HIV of a CEM-SS cell line (measured by the NCI). Type of assay: cell-based. To be noted: mean value at a derivative concentration of 2×10^−6 molar, compared with infection in the absence of Cs. The procedure: The protection of this line in the presence of a Cs derivative is compared with the infection of a line cultivated in the absence of Cs (reference control). A mean value is established at a concentration of the derivative of 2×10^−6 molar. This anti-HIV activity was measured by the NCI (National Cancer Institute) in Washington in the USA.

On to `C/C=C/C[C@@H](C)[C@@H](O)[C@H]1C(=O)N[C@@H](CC)C(=O)N(C)CC(=O)N(C)[C@@H]([C@@H](C)CC)C(=O)N[C@@H](C(C)C)C(=O)N(C)[C@@H](CC(C)C)C(=O)N[C@@H](C)C(=O)N[C@H](C)C(=O)N(C)[C@@H](CC(C)C)C(=O)N(C)[C@@H](CC(C)C)C(=O)N(C)[C@@H](C(C)C)C(=O)N1C` [UNIL 007, MeIle^4-Cs], for which the “BI (binding index: ratio of the IC50 of the derivative and the IC50 of CsA)” value at cyclophilin A amounted to 0.5. Further, the “IR (ratio of the IC50 of the MLR test of the derivative over the IC50 of cyclosporin A)” value in assay [1] is recorded as above 200. Besides, in the assay on HIV in CEM-SS cell line, the “Percentage HIV Protection” value was found to be 68.5.

Turning to EtIle4-Cs [UNIL 013], the “BI (binding index: ratio of the IC50 of the derivative and the IC50 of CsA)” value at cyclophilin A came to 1.3. In assay [1], the “IR (ratio of the IC50 of the MLR test of the derivative over the IC50 of cyclosporin A)” value is given as above 200.

On to EtPhe(4-CH2PO(OMe)2)-Cs [UNIL 014], for which the “BI (binding index: ratio of the IC50 of the derivative and the IC50 of CsA)” value on cyclophilin A came to 0.5. Also, the “IR (ratio of the IC50 of the MLR test of the derivative over the IC50 of cyclosporin A)” value in assay [1] is above 200.

EtVal^4-Cs [UNIL 004]: on cyclophilin A, the “BI (binding index: ratio of the IC50 of the derivative and the IC50 of CsA)” value turned out to be 1.0. In addition, in assay [1], the “IR (ratio of the IC50 of the MLR test of the derivative over the IC50 of cyclosporin A)” value is above 200. Besides, in the assay with HIV in CEM-SS cell line, the “Percentage HIV Protection” value worked out at 74.9.

Consider MeVal^4-Cs [UNIL 002], for which, at cyclophilin A, the “BI (binding index: ratio of the IC50 of the derivative and the IC50 of CsA)” value turned out to be 0.6. Further, the “IR (ratio of the IC50 of the MLR test of the derivative over the IC50 of cyclosporin A)” value in assay [1] is on record as above 200. Also, in the assay with HIV in CEM-SS cell line, the “Percentage HIV Protection” value was found to be 66.4.

For cyclosporin A [UNIL 001], on cyclophilin A, the “BI (binding index: ratio of the IC50 of the derivative and the IC50 of CsA)” value stood at 1.0. Besides, in assay [1], the “IR (ratio of the IC50 of the MLR test of the derivative over the IC50 of cyclosporin A)” value was 1.0.
